What was measured:
UCP2 [1] = test: Effects of Tempol on gene expression in cardiac tissue of mice, chip-based microarray; format: in vivo; details: 5 mg/g of food from 14 to 31 months after birth
Experimental: To assess the effects of Tempol on gene expression, Tempol was administered to experimental mice at a dose of 5 mg/g of food from 14 months to 31 months after birth. Mice receiving the same food without the addition of Tempol were used as a negative control. At the age of 31 months, the experimental animals were sacrificed and the hearts were surgically removed. The expression of a broad spectrum of genes in the cardiac tissue was assessed using chip-based microarray technology. Such chips are well known in the art and are widely used to assess gene expression.

UCP2 [2] = test: Treating a human subject with Tempol, serum level of UCP2 following treatment; format: in vivo; details: 2000 mg per day for 180 days
Experimental: (§1) A 70-kilogram human subject over the age of 65 is identified as having, or known to have, or suspected of having an increased expression level of UCP2. The human subject is administered a dose of 2000 mg of Tempol (or another nitroxide antioxidant) per day for 180 days. This may be administered in a single dose, or may be administered as a number of smaller doses over a 24-hour period: for example, four 500-mg doses at […]. Following treatment, the serum level of UCP2, is decreased.
as §1, with “subject” for “subject over the age of 65”
as §1, with “65 and having a cardiovascular disease” for “65”, “for an increased expression level of UCP2. Or a 70-kilogram human subject over the age of 65 is” for “as having, or”, “have a cardiovascular disease and/or” for “have, or suspected of having an”
as §1, with “at risk” for “over the age”, “developing colorectal cancer” for “65”, “for increased expression level of UCP2. Or a 70-kilogram human subject is” for “as having, or”, “be at risk” for “have, or suspected”, “developing colorectal cancer and/or have” for “having an”
A 70-kilogram human subject at risk of developing an autoimmune disease (e.g., rheumatoid arthritis) is identified for increased expression level of UCP2. Or a 70-kilogram human subject is known to be at risk of developing an autoimmune disease and/or have increased expression level of UCP2. The human subject is administered a dose of 2000 mg of Tempol (or another nitroxide antioxidant) per day for 180 days. This may be administered in a single dose, or may be administered as a number of smaller doses over a 24-hour period: for example, four 500-mg doses at […]. Following treatment, the serum level of UCP2, is decreased.
A 70-kilogram human subject of person at risk of developing a condition due to aging is identified. Or a 70-kilogram human subject of person is known to be at risk of developing a condition. The human subject is administered a dose of 2000 mg of Tempol (or another nitroxide antioxidant) per day for 180 days. This may be administered in a single dose, or may be administered as a number of smaller doses over a 24-hour period: for example, four 500-mg doses at […]. Following treatment, the serum level of UCP2, is decreased.
A 70-kilogram human subject at risk of developing a neurodegenerative disease (e.g., Parkinson's Disease) is identified for increased expression level of UCP2. Or a 70-kilogram human subject is known to be at risk of developing a neurodegenerative disease and/or have increased expression level of UCP2. The human subject is administered a dose of 2000 mg of Tempol (or another nitroxide antioxidant) per day for 180 days. […]

With `CC1(C)CC(O)CC(C)(C)N1[O]` [Tempol, 4-hydroxy-2,2,6,6-tetramethylpiperidine-1-oxyl] the “Fold change (UCP2 expression in cardiac tissue after Tempol administration)” value (UCP2 [1]; hearts at 31 months, vs. same food without Tempol, P-value 0.012) was −1.61, the “UCP2 expression in cardiac tissue (result in words)” value (UCP2 [1]; microarray) was “statistically significant decrease in expression” and the “serum level of UCP2 following treatment” value (UCP2 [2]; Example 2: 70-kilogram human subject over the age of 65 with increased UCP2 expression) was “decreased”. For the same compound, the “serum level of UCP2 following treatment” value (UCP2 [2]; Example 3: 70-kilogram human subject with increased UCP2 expression) was “decreased”, the “serum level of UCP2 following treatment” value (UCP2 [2]; Example 4: human subject over the age of 65 having a cardiovascular disease) was “decreased” and the “serum level of UCP2 following treatment” value (UCP2 [2]; Example 5: human subject at risk of developing colorectal cancer) was “decreased”. For the same compound, the “serum level of UCP2 following treatment” value (UCP2 [2]; Example 6: human subject at risk of developing an autoimmune disease) was “decreased”, the “serum level of UCP2 following treatment” value (UCP2 [2]; Example 7: human subject at risk of developing a condition due to aging) was “decreased” and the “serum level of UCP2 following treatment” value (UCP2 [2]; Example 8: human subject at risk of developing a neurodegenerative disease) was “decreased”. The “serum level of UCP2 following treatment” value (UCP2 [2]; Example 9: human subject having an infection) was “decreased”.

Source: US20240415826A1, “[…] OF A GENE ENCODING AN […] BY TREATING A HUMAN SUBJECT WITH A NITROXIDE” (priority 2021, published 2024)
